From EP1935887A1, “Heterocyclic substituted carbonyl derivatives and their use as dopamine D3 receptor ligands” (Aventis Pharmaceuticals Inc., priority 2001, dated 2002) come the findings set out here.

pKi: −log10 of the molar value.

For one assay, the target named is T1, Cloned Human Dopamine D3 Receptors (Homo sapiens, UniProt P35462).
T1 construct: expressed in transfected cells; membrane homogenate
T1 sequence (P35462 whole entry): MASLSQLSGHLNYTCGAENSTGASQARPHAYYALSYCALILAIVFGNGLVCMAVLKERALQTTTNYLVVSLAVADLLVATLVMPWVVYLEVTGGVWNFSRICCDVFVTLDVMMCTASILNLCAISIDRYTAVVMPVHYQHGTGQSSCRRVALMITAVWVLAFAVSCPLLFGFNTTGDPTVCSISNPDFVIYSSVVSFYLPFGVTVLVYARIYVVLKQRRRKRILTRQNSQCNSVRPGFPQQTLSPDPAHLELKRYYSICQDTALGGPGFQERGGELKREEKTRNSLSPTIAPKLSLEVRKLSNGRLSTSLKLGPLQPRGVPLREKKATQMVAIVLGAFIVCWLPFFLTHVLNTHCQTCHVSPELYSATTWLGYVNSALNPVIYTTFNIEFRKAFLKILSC
In words: [N-Methyl-3H]Spiroperidol binding to cloned human dopamine D3 receptors. To be noted: D3 Ki (nM). The text has this:
[N-Methyl-^3H]Spiroperidol Binding to Cloned Human Dopamine D3 Receptors
This assay measures the in vitro activity of compounds on cloned human dopamine (D3) receptors and predicts the direct dopamine-blocking properties of putative neuropsychiatric agents at human dopamine D3 receptors.
The D3 gene was isolated from a human striatal cDNA library (Stratagene). The gene was sequenced and sub-cloned into the expression vector RC/RSV (Invitrogen). CHO (Chinese Hamster Ovary) cells were stably transfected with 10 µg of the D3/RSV plasmid using the DOTAP method from Boehringer Mannheim and 72 clones that were G418 resistant were isolated. Using mRNA and binding displacement data a single high expressing clone was identified. This clone was then grown in large batches for the purpose of developing a 96 well format assay.
• 1. One plate (10 cm) with approximately 2-3 million D3 cells per plate is incubated with 1 ml of Trypsin-EDTA at room temperature for -2 min or until cells have lifted off plates. Four ml of Ham's F12 + 10% Fetal Bovine Serum + 1% Penicillin/Streptomycin + G418 (400 µg/ml) medium are added to resuspend cells and 1 ml of this is added to each large plate (15 cm) containing 19 ml of the same medium as mentioned above. • 2. The 5 large plates are incubated at 37°C + 5% CO2 for - 3 days or until the cells are confluent. • 3. After these plates are confluent, they are split into 10 large plates. Medium is aspirated off, 2 ml of Trypsin-EDTA are added to each plate and plates are incubated at RT for 2 min or until cells have lifted off the plate. Eight ml of the F12 medium (same medium as #1 above) are added to each plate (10 ml total) to resuspend the cells and 5 ml are transferred to the 2 new plates containing 15 ml of the F12 media. • 4. The 10 large plates are incubated at 37°C + 5% CO2 for ∼ 2 days or until the cells are confluent. • 5. The 10 large plates are split into 60 large plates (using Trypsin-EDTA as #3 except 4 ml of F12 medium are added to resuspend cells and 1 ml is aliquoted to 6 new plates containing 19 ml of F12 medium each). • 6. Plates are incubated at 37°C + 5% CO2 for - 3 days or until cell are confluent. • 7. The 60 large plates are then split into 60 roller bottles (100-150 million cells/bottle). Medium is aspirated off , 2 ml of Trypsin-EDTA are added to each plate and incubated at RT for -2 minutes or until cells have lifted off plates. Eight ml of F12 medium are added to each plate to resuspend cells and the entire 10 ml are added to 1 roller bottle containing 90 ml of the F12 medium. • 8. The 60 roller bottles are immediately placed on their sides and transferred to the roller bottle incubator. They are incubated at 37°C + 5% CO2 for ~ 3-5 days. Cells are spun at 30-40% motor speed in the Forma incubator. • 9. Medium is poured off and cells are washed 2X in PBS. • 10. Cells are then scraped off in 20 ml of PBS and the bottles are rinsed again with 5 ml of PBS to remove any remaining cells. Cells are stored on ice before membrane prepration. • 11. The yield for 60 D3 roller bottles has varied from - 260-500 mg. Note: All tissue culture reagents are from Gibco-BRL.
The cells are harvested into 250 ml centrifuge tubes with 100 volumes of cold phosphate buffered saline (PBS) and spun down (1200xG for 10 min at 4°C). The medium is removed and 100 ml PBS are added to each centrifuge tube, cells are resuspened and spun down again. The PBS is removed and the final pellet is homogenized in an appropriate volume of 10% DMSO with a polytron on ice at a medium setting.
A 200 µl sample membrane homogenate is added to 200 µl of 1% SDS, vortexed and allowed to stand for 5 min. Aliquots (25, 50 and 100 µl) of this mixture are assayed in duplicate following the standard Bio-Rad DC protein assay protocol (kit catalog number 500-0112) and using reagent S. Absorbance readings are made at 750 nm (note: the most accurate protein OD readings are between 0.1-0.5 units). […]
As a reminder, the Ki is a measure of affinity in units of concentration, obtained from inhibition or displacement. High values mean a looser hold on the target, low ones a stronger hold on the target. Compound `CN1CCCC1CCNC(=O)[C@H]1C[C@@H]1CN1CCC(c2noc3ccsc23)CC1` (single isomer, unassigned) [compound 832514] registered a Ki of 115 nM.

`O=C(NC1CCN(CCc2cccc(Cl)c2)CC1)C1CC1CN1CCC(c2noc3ccsc23)CC1` (centres unmarked) [832573FH] showed a Ki of 4.52 nM.

`O=C(NCCCc1nc2ccccc2[nH]1)[C@@H]1C[C@H]1CN1CCC(c2noc3ccsc23)CC1` [832574FH] displayed a Ki of 57.3 nM.

Compound `Cn1nc(C2CCN(C[C@@H]3C[C@H]3C(=O)NCCCN3CCCCC3)CC2)c2cc(C(F)(F)F)ccc21` [833585ES] had a Ki of 5.86 nM.

As to `CN1C2CCC1CC(NC(=O)C1CC1CN1CCC(c3nn(C)c4c(C(F)(F)F)cccc34)CC1)C2` (centres unmarked) [A002328941], the Ki turned out to be 23.9 nM.

Still in this assay, the particulars now being: Table 2; unit inferred; read-out: d3Ki.
With `CC1CCC(NC(=O)C2CC2CN2CCN(c3ccc(C(F)(F)F)cc3)CC2)CC1` (centres unmarked) [817039A], the pKi was 7.46.

With `CCC1CCC(NC(=O)C2CC2CN2CCN(c3ccc(C(F)(F)F)cc3)CC2)CC1` (centres unmarked) [817043A], the pKi was 7.73.

Turning to `CC[C@H]1CC[C@H](NC(=O)[C@@H]2C[C@H]2CN2CCN(c3ccc(Cl)c(Cl)c3)CC2)CC1` [817090A], the pKi was 8.30.

Turning to `CC[C@H]1CC[C@H](NC(=O)[C@@H]2C[C@H]2CN2CCN(c3cc(C)ccc3C)CC2)CC1` [817102A], the pKi is 8.12.

In the case of `Cc1ccccc1N1CCN(C[C@@H]2C[C@H]2C(=O)N[C@H]2CC[C@H](C)CC2)CC1` [817478A], the pKi is 8.70.

Turning to `CCC1CCC(NC(=O)C2CC2CN2CCN(c3ncc(C(F)(F)F)cc3Cl)CC2)CC1` (centres unmarked) [817480A], the pKi is 8.27.

In the case of `C[C@H]1CC[C@H](NC(=O)[C@@H]2C[C@H]2CN2CCN(c3csc4cc(C(F)(F)F)ccc34)CC2)CC1` [817569A], the pKi was 8.27.

For `CCC1CCC(NC(=O)C2CC2CN2CCN(c3cc(C)ccc3C)CC2)CC1` (centres unmarked) [817570A], the pKi is 8.30.

In the case of `CCC1CCC(NC(=O)C2CC2CN2CCN(c3ccc(C)cc3C)CC2)CC1` (centres unmarked) [817571A], the pKi is 7.94.

Regarding `C[C@H]1CC[C@H](NC(=O)[C@H]2C[C@@H]2CN2CCN(c3csc4cc(C(F)(F)F)ccc34)CC2)CC1` [(+)-816589], the pKi was 5.97.

With `C[C@H]1CC[C@H](NC(=O)[C@@H]2C[C@H]2CN2CCN(c3csc4cc(C(F)(F)F)ccc34)CC2)CC1` [(-)-817569], the pKi was 8.58.

Turning to `O=C(CCCCN1CCN(c2csc3cc(F)ccc23)CC1)Nc1ccc(F)cc1` [compound 813384], the pKi is 7.13.

`CCCN(C(=O)CCCCN1CCN(c2csc3cc(F)ccc23)CC1)c1ccc(F)cc1` [compound 814648]: the pKi was 7.40.

`O=C(CCCCN1CCN(c2csc3cc(F)ccc23)CC1)N(Cc1ccccc1)c1ccc(F)cc1` [compound 814649]: the pKi is 7.41.

`C[C@H]1CC[C@H](NC(=O)[C@@H]2C[C@H]2CN2CCN(c3csc4cc(C(F)(F)F)ccc34)CC2)CC1` [compound 815916]: the pKi was 8.30.

For `CCOC(=O)[C@H]1CC[C@H](NC(=O)[C@@H]2C[C@H]2CN2CCN(c3csc4cc(C(F)(F)F)ccc34)CC2)CC1` [compound 815917], the pKi was 7.74.

For `CC[C@H]1CC[C@H](NC(=O)[C@@H]2C[C@H]2CN2CCN(c3csc4cc(C(F)(F)F)ccc34)CC2)CC1` [compound 815918], the pKi is 7.82.

Staying with this assay, now noted: d3Ki, Table 2; unit inferred.
`C[C@H]1CC[C@H](NC(=O)[C@@H]2C[C@H]2CN2CCN(c3noc4ccsc34)CC2)CC1` [817892A] gave a pKi of 8.52.

Still in this assay, the particulars now being: read-out: D3 Ki.
As to `CN1CCCC1CCNC(=O)[C@@H]1C[C@H]1CN1CCC(c2noc3ccsc23)CC1` (mixture of isomers) [compound 831936], the pKi is 7.46.

For `CC(C)(C)OC(=O)N1CCCC(CNC(=O)[C@@H]2C[C@H]2CN2CCC(c3noc4ccsc34)CC2)C1` (mixture of isomers) [compound 833374], the pKi is 7.51.

Regarding `O=C(NCC1CCCNC1)[C@@H]1C[C@H]1CN1CCC(c2noc3ccsc23)CC1` (mixture of isomers) [compound 833385], the pKi was 8.48.

On to `C[C@H]1CC[C@H](NC(=O)[C@@H]2C[C@H]2CN2CCC(c3cc4ccccc4s3)CC2)CC1` (relative stereo) [compound 831148, 2R-(4-Benzo[b]thiophen-2-yl-piperidin-1-ylmethyl)-1R-cyclopranecarboxylic acid (trans-4-methyl-cyclohexyl)-amide], for which the pKi was 9.34.

For the compound `COCCN1CCN(C(=O)[C@@H]2C[C@H]2CN2CCN(c3nn(C)c4ccc(OC)cc34)CC2)CC1` [832748FH], the pKi is 7.10.

With `O=C(NCCCN1CCCCC1)[C@@H]1C[C@H]1CN1CCN(c2nn(-c3ccc(C(F)(F)F)cc3)c3ccsc23)CC1` [A002201942], the pKi was 7.52.

Take `Cn1nc(N2CCN(C[C@@H]3C[C@H]3C(=O)NCCCN3CCOCC3)CC2)c2sccc21` [A002202402]: the pKi is 7.32.

Regarding `O=C(NCCCN1CCCCC1)[C@@H]1C[C@H]1CN1CCC(c2nn(CC(F)(F)F)c3ccsc23)CC1` [A002328969], the pKi was 6.86.

For `O=C([C@@H]1C[C@H]1CN1CCC(c2nn(CC(F)(F)F)c3ccsc23)CC1)N1CCC(Cn2ccnc2)CC1` [A002328970], the pKi is 7.44.

Turning to `Cn1nc(C2CCN(C[C@@H]3C[C@H]3C(=O)NCCCN3CCCCC3)CC2)c2cccc(C(F)(F)F)c21` [A002329092], the pKi was 6.49.

For `Cn1nc(C2CCN(C[C@@H]3C[C@H]3C(=O)NCCCn3ccnc3)CC2)c2cccc(C(F)(F)F)c21` [A002329093], the pKi is 6.39.

For `Cn1nc(N2CCN(C[C@@H]3C[C@H]3C(=O)NCCCN3CCSCC3)CC2)c2sccc21` [A002350370], the pKi is 7.09.

In the case of `Cn1nc(C2CCN(C[C@@H]3C[C@H]3C(=O)N3CCC(Cn4ccnc4)CC3)CC2)c2sccc21` [A002436292], the pKi was 6.89.

Regarding `O=C(NC1CCN(Cc2ccc(F)c(F)c2)CC1)[C@@H]1C[C@H]1CN1CCN(c2nn(-c3ccc(OC(F)(F)F)cc3)c3ccsc23)CC1` [A002437083], the pKi was 7.96.

As to `O=C(NCCCn1ccnc1)[C@@H]1C[C@H]1CN1CCN(c2nc3cccc4c3n2CCC4)CC1` [A002437350], the pKi is 7.79.

In the case of `CN1CCN(CCCNC(=O)[C@@H]2C[C@H]2CN2CCN(c3nc4cccc5c4n3CCC5)CC2)CC1` [A002439100], the pKi was 6.26.

As for `CC(C)(C)OC(=O)N1CCC(CNC(=O)[C@@H]2C[C@H]2CN2CCC(c3noc4c(C(F)(F)F)cccc34)CC2)CC1` [A002439261], the pKi was 7.26.

Regarding `CN1CCN(CCCNC(=O)[C@@H]2C[C@H]2CN2CCC(c3nn(CC(F)(F)F)c4ccsc34)CC2)CC1` [A002439265], the pKi is 7.06.

The assay is the same for the next values; noted with them: read-out: d3Ki.
With `O=C(N[C@H]1CC[C@H](C(=O)O)CC1)[C@@H]1C[C@H]1CN1CCN(c2csc3cc(C(F)(F)F)ccc23)CC1` [816078A], the pKi is 7.05.

Regarding `O=C(NCc1nc2ccccc2[nH]1)[C@@H]1CCC[C@H]1N1CCN(c2csc3cc(F)ccc23)CC1` [825826G], the pKi was 7.49.

With `O=C(NCC1CC1)[C@@H]1CCC[C@H]1N1CCN(c2csc3cc(F)ccc23)CC1` [825829G], the pKi is 7.40.

For the compound `O=C(NCc1cccnc1)[C@@H]1CCC[C@H]1N1CCN(c2csc3cc(F)ccc23)CC1` [825834G], the pKi is 8.16.

For `O=C(N[C@H]1CC[C@H](O)CC1)[C@@H]1C[C@H]1CN1CCN(c2csc3cc(C(F)(F)F)ccc23)CC1` [compound 816592], the pKi was 7.96.

Still in this assay, the particulars now being: the 17th table; read-out: D3 Ki.
In the case of `C[C@H]1CC[C@H](N2CC(CN3CCN(c4noc5ccsc45)CC3)CC2=O)CC1` (some centres unmarked) [832831 DA], the pKi is 6.81.
